Results published in ChEMBL document CHEMBL5058649, “Data for DCP probe BAY 1816032” (2022).
Calls of active or inactive are those of the source. The rule behind the calls is not given here.

Experiments:
[1] = target: Muscarinic acetylcholine receptor M3 (Homo sapiens) (UniProt P20309); conditions: Compound concentration 10.0 uM
[2] = target: Proto-oncogene tyrosine-protein kinase receptor Ret (Homo sapiens) (UniProt P07949); test: RET DiscoveRx kinase panel; conditions: Compound concentration 1.0 uM
[3] = target: High affinity nerve growth factor receptor (Homo sapiens) (UniProt P04629); test: TRKA DiscoveRx kinase panel; conditions: Compound concentration 1.0 uM
[4] = target: Dual specificity protein kinase CLK3 (Homo sapiens) (UniProt P49761); test: CLK3 DiscoveRx kinase panel; conditions: Compound concentration 1.0 uM
Sequence of Dual specificity protein kinase CLK3 (Homo sapiens) (P49761 whole entry, looked up): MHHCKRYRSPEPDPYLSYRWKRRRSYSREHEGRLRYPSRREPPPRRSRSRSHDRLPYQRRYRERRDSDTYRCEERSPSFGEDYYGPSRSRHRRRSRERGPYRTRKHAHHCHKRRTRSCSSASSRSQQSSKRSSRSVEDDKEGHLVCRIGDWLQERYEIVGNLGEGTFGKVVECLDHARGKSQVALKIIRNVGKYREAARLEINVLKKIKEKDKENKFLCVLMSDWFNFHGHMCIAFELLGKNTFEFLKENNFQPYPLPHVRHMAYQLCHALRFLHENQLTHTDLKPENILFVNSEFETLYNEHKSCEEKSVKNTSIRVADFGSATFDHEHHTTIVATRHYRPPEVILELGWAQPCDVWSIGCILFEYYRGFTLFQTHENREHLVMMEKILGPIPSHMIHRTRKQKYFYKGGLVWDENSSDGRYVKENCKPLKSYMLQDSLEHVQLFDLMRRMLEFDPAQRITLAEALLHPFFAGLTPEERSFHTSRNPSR

[5] = target: Ephrin type-B receptor 6 (Homo sapiens) (UniProt O15197); test: EPHB6 DiscoveRx kinase panel; conditions: Compound concentration 1.0 uM
[6] = target: Serine/threonine-protein kinase 35 (Homo sapiens) (UniProt Q8TDR2); test: STK35 DiscoveRx kinase panel; conditions: Compound concentration 1.0 uM
Sequence of Serine/threonine-protein kinase 35 (Homo sapiens) (Q8TDR2 whole entry): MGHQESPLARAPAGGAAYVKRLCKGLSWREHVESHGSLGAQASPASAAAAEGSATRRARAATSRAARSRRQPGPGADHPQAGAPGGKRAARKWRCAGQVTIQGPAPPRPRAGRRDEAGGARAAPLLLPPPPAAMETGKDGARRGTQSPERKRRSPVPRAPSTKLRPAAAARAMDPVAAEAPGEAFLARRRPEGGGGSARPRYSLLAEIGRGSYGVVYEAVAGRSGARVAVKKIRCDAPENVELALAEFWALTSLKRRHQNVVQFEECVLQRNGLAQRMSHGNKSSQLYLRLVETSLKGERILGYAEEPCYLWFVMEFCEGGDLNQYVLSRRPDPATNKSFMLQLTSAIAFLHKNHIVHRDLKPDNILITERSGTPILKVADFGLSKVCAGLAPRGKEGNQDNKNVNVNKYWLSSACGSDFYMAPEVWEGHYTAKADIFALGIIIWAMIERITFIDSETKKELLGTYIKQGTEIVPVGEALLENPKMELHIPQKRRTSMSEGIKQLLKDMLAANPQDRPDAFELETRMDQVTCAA

[7] = target: Tyrosine-protein kinase SYK (Homo sapiens) (UniProt P43405); test: SYK DiscoveRx kinase panel; conditions: Compound concentration 1.0 uM
[8] = target: 5'-AMP-activated protein kinase catalytic subunit alpha-1 (Homo sapiens) (UniProt Q13131); test: AMPK-alpha1 DiscoveRx kinase panel; conditions: Compound concentration 1.0 uM
[9] = target: Tyrosine-protein kinase JAK1 (Homo sapiens) (UniProt P23458); test: JAK1(JH2domain-pseudokinase) DiscoveRx kinase panel; conditions: Compound concentration 1.0 uM
[10] = target: Mitogen-activated protein kinase kinase kinase 15 (Homo sapiens) (UniProt Q6ZN16); test: MAP3K15 DiscoveRx kinase panel; conditions: Compound concentration 1.0 uM
[11] = target: Rho-associated protein kinase 2 (Homo sapiens) (UniProt O75116); test: ROCK2 DiscoveRx kinase panel; conditions: Compound concentration 1.0 uM
[12] = target: T1, Alpha-2A adrenergic receptor (Homo sapiens) (UniProt P08913); conditions: Compound concentration 10.0 uM
T1 sequence (whole entry): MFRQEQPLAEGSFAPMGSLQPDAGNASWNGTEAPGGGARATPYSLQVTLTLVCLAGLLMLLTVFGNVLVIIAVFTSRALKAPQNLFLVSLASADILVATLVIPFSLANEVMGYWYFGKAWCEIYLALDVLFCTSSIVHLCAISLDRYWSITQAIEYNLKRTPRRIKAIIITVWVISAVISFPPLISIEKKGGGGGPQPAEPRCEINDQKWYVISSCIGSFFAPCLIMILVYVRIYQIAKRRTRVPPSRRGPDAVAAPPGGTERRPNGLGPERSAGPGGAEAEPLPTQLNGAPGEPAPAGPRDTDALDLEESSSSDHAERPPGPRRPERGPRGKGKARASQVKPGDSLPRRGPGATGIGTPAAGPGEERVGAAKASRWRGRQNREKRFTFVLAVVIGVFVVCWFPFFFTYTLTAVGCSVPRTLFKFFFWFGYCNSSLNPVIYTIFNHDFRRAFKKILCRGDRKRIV

[13] = target: Serine/threonine-protein kinase B-raf (Homo sapiens) (UniProt P15056); test: BRAF DiscoveRx kinase panel; conditions: Compound concentration 1.0 uM
Sequence of Serine/threonine-protein kinase B-raf (Homo sapiens) (P15056 whole entry): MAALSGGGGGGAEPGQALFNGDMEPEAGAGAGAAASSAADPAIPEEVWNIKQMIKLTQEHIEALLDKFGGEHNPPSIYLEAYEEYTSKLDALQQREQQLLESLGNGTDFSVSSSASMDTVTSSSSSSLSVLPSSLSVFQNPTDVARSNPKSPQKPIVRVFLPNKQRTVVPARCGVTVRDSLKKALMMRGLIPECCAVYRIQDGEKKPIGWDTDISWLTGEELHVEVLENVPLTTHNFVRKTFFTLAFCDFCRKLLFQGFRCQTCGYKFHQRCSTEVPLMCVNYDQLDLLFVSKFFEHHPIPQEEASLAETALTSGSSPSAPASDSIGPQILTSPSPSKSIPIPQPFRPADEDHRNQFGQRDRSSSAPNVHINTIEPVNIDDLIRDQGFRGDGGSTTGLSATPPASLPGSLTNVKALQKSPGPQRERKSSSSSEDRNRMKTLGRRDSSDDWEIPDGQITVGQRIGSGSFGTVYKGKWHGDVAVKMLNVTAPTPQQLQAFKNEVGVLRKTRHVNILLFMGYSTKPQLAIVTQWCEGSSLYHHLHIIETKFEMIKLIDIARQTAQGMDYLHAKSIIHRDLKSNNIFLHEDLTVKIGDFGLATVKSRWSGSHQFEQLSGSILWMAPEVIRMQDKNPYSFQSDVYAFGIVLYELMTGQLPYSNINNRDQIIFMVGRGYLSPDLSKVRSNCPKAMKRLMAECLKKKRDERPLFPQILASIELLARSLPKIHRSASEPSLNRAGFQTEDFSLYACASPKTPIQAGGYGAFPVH

[14] = target: NUAK family SNF1-like kinase 2 (Homo sapiens) (UniProt Q9H093); test: SNARK DiscoveRx kinase panel; conditions: Compound concentration 1.0 uM
[15] = target: voltage-gated sodium channel, site 2 (Rattus norvegicus, UniProt F1LQQ7+O08562+O88420+O88457+P04774+P04775+P08104+P15389+P15390+Q62968); test: Inhibition of Sodium Channel, Site 2 at 10 µM in the Eurofins-Panlabs radioligand binding assay (Eurofins_assay_279510); type: protein assay; set-up: ligand concentration 5 nM, non-specific ligand with concentration 100 µM Veratridine, incubation time 60 min, incubation temperature 37 °C; conditions: male, Wistar, rat whole brain (except cerebellum) membranes, probe [3H] Batrachotoxinin, compound concentration 10 uM
[16] = target: Serine/threonine-protein kinase TBK1 (Homo sapiens) (UniProt Q9UHD2); test: TBK1 DiscoveRx kinase panel; conditions: Compound concentration 1.0 uM
[17] = target: Inhibitor of nuclear factor kappa-B kinase subunit beta (Homo sapiens) (UniProt O14920); test: IKK-beta DiscoveRx kinase panel; conditions: Compound concentration 1.0 uM
[18] = target: Ribosomal protein S6 kinase alpha-2 (Homo sapiens) (UniProt Q15349); test: RSK3(Kin.Dom.1-N-terminal) DiscoveRx kinase panel; conditions: Compound concentration 1.0 uM
[19] = target: Ribosomal protein S6 kinase alpha-4 (Homo sapiens) (UniProt O75676); test: RPS6KA4(Kin.Dom.1-N-terminal) DiscoveRx kinase panel; conditions: Compound concentration 1.0 uM
[20] = target: MAP kinase-interacting serine/threonine-protein kinase 1 (Homo sapiens) (UniProt Q9BUB5); test: MKNK1 DiscoveRx kinase panel; conditions: Compound concentration 1.0 uM
Sequence of MAP kinase-interacting serine/threonine-protein kinase 1 (Homo sapiens) (Q9BUB5 whole entry, looked up): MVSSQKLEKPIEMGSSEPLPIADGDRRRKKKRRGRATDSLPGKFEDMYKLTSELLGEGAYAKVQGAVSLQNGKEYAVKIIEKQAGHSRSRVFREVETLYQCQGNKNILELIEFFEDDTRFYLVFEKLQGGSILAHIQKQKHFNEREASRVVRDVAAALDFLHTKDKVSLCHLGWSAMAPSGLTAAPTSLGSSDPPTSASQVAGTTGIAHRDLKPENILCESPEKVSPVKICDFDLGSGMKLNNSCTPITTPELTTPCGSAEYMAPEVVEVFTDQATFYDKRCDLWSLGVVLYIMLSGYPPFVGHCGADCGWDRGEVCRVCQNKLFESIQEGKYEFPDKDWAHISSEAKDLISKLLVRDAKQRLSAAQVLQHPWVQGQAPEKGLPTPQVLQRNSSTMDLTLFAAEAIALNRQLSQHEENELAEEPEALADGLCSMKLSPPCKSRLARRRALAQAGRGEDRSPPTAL

[21] = target: Tyrosine-protein kinase BTK (Homo sapiens) (UniProt Q06187); test: BTK DiscoveRx kinase panel; conditions: Compound concentration 1.0 uM
Sequence of Tyrosine-protein kinase BTK (Homo sapiens) (Q06187 whole entry): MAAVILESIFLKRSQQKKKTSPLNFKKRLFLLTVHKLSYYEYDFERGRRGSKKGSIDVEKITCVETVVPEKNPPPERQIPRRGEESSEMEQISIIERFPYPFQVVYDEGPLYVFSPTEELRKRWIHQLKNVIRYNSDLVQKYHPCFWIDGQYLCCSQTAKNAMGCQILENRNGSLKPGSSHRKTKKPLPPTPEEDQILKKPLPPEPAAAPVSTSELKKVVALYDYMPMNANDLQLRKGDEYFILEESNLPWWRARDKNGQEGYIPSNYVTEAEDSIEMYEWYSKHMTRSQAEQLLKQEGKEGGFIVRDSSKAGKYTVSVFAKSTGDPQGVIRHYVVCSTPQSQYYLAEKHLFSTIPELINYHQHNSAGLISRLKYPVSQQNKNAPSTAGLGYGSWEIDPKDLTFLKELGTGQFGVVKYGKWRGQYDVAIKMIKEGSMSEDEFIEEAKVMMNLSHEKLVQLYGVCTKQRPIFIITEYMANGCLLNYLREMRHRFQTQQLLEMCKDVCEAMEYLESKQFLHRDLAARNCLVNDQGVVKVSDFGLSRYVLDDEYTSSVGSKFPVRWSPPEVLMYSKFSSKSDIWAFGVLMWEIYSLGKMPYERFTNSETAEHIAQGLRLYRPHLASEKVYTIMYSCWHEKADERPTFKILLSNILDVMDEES

[22] = target: Sodium-dependent serotonin transporter (Homo sapiens) (UniProt P31645); test: Transporter, Serotonin (5- Hydroxytryptamine) (SERT) Eurofins-Panlabs radioligand binding assay; conditions: Compound concentration 10.0 uM
[23] = target: 3-phosphoinositide-dependent protein kinase 1 (Homo sapiens) (UniProt O15530); test: PDPK1 DiscoveRx kinase panel; conditions: Compound concentration 1.0 uM
[24] = target: 5-hydroxytryptamine receptor 1B (Homo sapiens) (UniProt P28222); test: Serotonin (5-Hydroxytryptamine) 5-HT1B Eurofins-Panlabs radioligand binding assay; set-up: ligand concentration 1 nM; conditions: Compound concentration 10.0 uM
[25] = target: Phosphatidylinositol 4,5-bisphosphate 3-kinase catalytic subunit beta isoform (Homo sapiens) (UniProt P42338); test: PIK3CB DiscoveRx kinase panel; conditions: Compound concentration 1.0 uM
[26] = target: Phosphatidylinositol 4-phosphate 5-kinase type-1 gamma (Homo sapiens) (UniProt O60331); test: PIP5K1C DiscoveRx kinase panel; conditions: Compound concentration 1.0 uM
[27] = target: Hepatocyte growth factor receptor (Homo sapiens) (UniProt P08581); test: MET DiscoveRx kinase panel; conditions: Compound concentration 1.0 uM
[28] = target: Wee1-like protein kinase (Homo sapiens) (UniProt P30291); test: WEE1 DiscoveRx kinase panel; conditions: Compound concentration 1.0 uM
Sequence of Wee1-like protein kinase (Homo sapiens) (P30291 whole entry, looked up): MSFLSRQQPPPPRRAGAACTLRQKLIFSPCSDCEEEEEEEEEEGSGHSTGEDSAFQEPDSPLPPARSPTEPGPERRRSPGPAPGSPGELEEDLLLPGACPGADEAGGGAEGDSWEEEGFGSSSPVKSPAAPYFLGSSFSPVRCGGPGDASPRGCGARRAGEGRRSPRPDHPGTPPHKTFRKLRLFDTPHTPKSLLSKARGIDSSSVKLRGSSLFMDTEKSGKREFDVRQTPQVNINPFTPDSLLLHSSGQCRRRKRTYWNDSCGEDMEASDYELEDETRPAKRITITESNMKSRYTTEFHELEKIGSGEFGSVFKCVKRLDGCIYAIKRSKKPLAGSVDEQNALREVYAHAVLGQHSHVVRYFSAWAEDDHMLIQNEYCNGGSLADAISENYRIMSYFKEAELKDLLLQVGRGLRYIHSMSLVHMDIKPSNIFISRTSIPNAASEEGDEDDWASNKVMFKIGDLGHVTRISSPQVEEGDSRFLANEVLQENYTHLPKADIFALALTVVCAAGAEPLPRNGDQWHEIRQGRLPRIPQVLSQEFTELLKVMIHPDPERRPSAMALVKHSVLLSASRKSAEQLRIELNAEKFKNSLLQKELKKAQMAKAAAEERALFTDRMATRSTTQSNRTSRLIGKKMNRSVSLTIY

[29] = target: Atypical kinase COQ8B, mitochondrial (Homo sapiens) (UniProt Q96D53); test: ADCK4 DiscoveRx kinase panel; conditions: Compound concentration 1.0 uM
[30] = target: Serine/threonine-protein kinase 4 (Homo sapiens) (UniProt Q13043); test: MST1 DiscoveRx kinase panel; conditions: Compound concentration 1.0 uM
[31] = target: Histamine H2 receptor (Homo sapiens) (UniProt P25021); conditions: Compound concentration 10.0 uM
Sequence of Histamine H2 receptor (Homo sapiens) (P25021 whole entry, the tested form may be a part): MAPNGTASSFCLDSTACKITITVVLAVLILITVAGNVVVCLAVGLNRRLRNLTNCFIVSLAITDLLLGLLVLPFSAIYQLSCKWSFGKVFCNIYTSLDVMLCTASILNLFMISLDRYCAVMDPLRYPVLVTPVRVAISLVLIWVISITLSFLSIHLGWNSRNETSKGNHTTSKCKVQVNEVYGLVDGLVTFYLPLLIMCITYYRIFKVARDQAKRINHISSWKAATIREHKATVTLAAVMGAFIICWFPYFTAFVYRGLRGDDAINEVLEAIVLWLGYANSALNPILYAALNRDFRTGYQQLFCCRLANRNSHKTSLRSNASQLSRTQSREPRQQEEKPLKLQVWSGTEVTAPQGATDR

[32] = target: LIM domain kinase 2 (Homo sapiens) (UniProt P53671); test: LIMK2 DiscoveRx kinase panel; conditions: Compound concentration 1.0 uM
[33] = target: Vascular endothelial growth factor receptor 3 (Homo sapiens) (UniProt P35916); test: FLT4 DiscoveRx kinase panel; conditions: Compound concentration 1.0 uM
[34] = target: Mitotic checkpoint serine/threonine-protein kinase BUB1 (Homo sapiens, UniProt O43683); test: ePCA binding competition (equilibrium binding assay)
Sequence of Mitotic checkpoint serine/threonine-protein kinase BUB1 (O43683 whole entry): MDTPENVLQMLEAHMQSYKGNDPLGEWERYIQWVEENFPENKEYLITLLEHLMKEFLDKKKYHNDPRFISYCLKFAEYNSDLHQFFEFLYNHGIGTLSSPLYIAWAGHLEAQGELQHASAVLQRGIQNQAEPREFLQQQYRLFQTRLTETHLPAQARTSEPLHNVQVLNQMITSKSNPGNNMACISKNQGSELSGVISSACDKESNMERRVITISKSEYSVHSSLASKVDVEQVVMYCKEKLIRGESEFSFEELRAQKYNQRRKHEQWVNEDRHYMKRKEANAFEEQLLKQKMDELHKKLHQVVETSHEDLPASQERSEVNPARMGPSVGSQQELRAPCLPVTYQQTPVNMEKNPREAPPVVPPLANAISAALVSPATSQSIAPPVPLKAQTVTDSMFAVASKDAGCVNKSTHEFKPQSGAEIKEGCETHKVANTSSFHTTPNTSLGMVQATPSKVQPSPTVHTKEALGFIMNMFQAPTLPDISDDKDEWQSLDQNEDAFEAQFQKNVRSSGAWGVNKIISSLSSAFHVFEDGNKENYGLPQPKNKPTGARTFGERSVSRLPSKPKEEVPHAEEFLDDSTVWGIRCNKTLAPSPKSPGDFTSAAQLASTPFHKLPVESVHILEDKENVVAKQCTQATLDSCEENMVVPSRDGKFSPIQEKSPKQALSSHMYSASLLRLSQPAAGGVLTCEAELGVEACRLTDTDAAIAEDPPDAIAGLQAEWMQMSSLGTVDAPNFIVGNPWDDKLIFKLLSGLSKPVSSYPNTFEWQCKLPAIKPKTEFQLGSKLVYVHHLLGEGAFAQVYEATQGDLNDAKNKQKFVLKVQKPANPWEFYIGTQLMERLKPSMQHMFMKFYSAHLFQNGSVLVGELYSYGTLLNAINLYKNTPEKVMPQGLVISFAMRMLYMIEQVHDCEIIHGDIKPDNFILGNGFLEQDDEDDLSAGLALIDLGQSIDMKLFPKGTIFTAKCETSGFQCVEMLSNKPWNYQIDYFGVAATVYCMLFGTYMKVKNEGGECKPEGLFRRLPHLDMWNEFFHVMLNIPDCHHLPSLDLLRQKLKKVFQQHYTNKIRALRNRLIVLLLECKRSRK

[35] = target: Serine/threonine-protein kinase haspin (Homo sapiens) (UniProt Q8TF76); test: HASPIN DiscoveRx kinase panel; conditions: Compound concentration 1.0 uM
[36] = target: Rhodopsin kinase GRK1 (Homo sapiens) (UniProt Q15835); test: GRK1 DiscoveRx kinase panel; conditions: Compound concentration 1.0 uM
[37] = target: Serine/threonine-protein kinase 32A (Homo sapiens) (UniProt Q8WU08); test: YANK1 DiscoveRx kinase panel; conditions: Compound concentration 1.0 uM
[38] = tested on: Bacteria; test: Inhibition of Beta-Lactamase at 10 µM in the Eurofins-Panlabs enzyme assay (Eurofins_assay_126000); type: protein-complex assay; set-up: substrate with concentration; conditions: Compound concentration 10.0 uM
[39] = target: Serine/threonine-protein kinase RIO1 (Homo sapiens) (UniProt Q9BRS2); test: RIOK1 DiscoveRx kinase panel; conditions: Compound concentration 1.0 uM
[40] = target: Cyclin-dependent kinase 11B (Homo sapiens) (UniProt P21127); test: CDC2L1 DiscoveRx kinase panel; conditions: Compound concentration 1.0 uM

In the case of COc1cnccc1Nc1nc(-c2nn(Cc3c(F)cc(OCCO)cc3F)c3ccccc23)ncc1OC, the inhibition [1] is reported as -5%, the residual activity [2] is reported as 97% and the residual activity [3] is reported as 92%. For the same molecule, the residual activity [4] was 100%, the residual activity [5] was 100% and the residual activity [6] was 99%. It also gave a residual activity [7] of 100%, a residual activity [8] of 100% and a residual activity [9] of 100%. The residual activity [10] was 87%, the residual activity [11] was 100% and the inhibition [12] was 7.49%. The residual activity [13] was 99%, the residual activity [14] was 99% and the inhibition at 60 min, 10 µM [15] was 53%. The residual activity [16] was 94%, the residual activity [17] was 100% and the residual activity [18] was 80%. It also gave a residual activity [19] of 91%, a residual activity [20] of 100% and a residual activity [21] of 100%. The inhibition [22] was 4%, the residual activity [23] was 100% and the inhibition [24] was 15%. It also gave a residual activity [25] of 97%, a residual activity [26] of 100% and a residual activity [27] of 80%. The residual activity [28] was 100%, the residual activity [29] was 99% and the residual activity [30] was 100%. It also gave an inhibition [31] of 9.79%, a residual activity [32] of 97% and a residual activity [33] of 82%. The IC50 [34] was 1 nM (active), the residual activity [35] was 100% and the residual activity [36] was 100%. For the same molecule, the residual activity [37] was 71%, the inhibition [38] was 21% and the residual activity [39] was 79%. The residual activity [40] was 91%.
